Reference: patent publication US20130065818A1, “Arylamide Compounds And Compositions And Uses Thereof” (POLYMEDIX, priority 2006, published 2013)
≈ marks a conversion by molar mass, not a printed value. Where two headings read alike, the source gives them in different places.

How the values were obtained:
[1] = system: Staphylococcus aureus fluoroquinolone-resistant; test: MIC, 25 ocular isolates, broth microdilution (Example 8); type: cell-based
Protocol: (§1) • Mueller-Hinton Broth in tubes was inoculated with 25 ocular isolates of Staphylococcus aureus fluoroquinolone-susceptible, Staphylococcus aureus fluoroquinolone-resistant, Staphylococcus epidermidis (Coagulase-negative Staphylococcus) fluoroquinolone-susceptible, Staphylococcus epidermidis (Coagulase-negative Staphylococcus) fluoroquinolone-resistant, Pseudomonas aeruginosa and Serratia marcescens, plus two controls (Staphylococcus aureus and E. coli) and incubated at 37° C. overnight on a shaker set at 250 rpm.
(§2) On the day of testing, a 640 μg/ml (1280 μg/ml for Serratia marcescens and Pseudomonas aeruginosa) concentration was prepared from a 1% stock solution in 0.01% acetic acid, 0.2% BSA in polypropylene tubes.
(§3) Serial doubling dilutions in 0.01% acetic acid, 0.2% BSA in 96 well polypropylene plates, which are used as reservoirs for the inoculation of the test plates, were carried out to obtain serial dilutions of test agents at 10 times the required test concentrations: 640, 320, 160, 80, 40, 20, 10, 5, 2.5, 1.25, and 0.625 μg/ml (1280, 640, 320, 160, 80, 40, 20, 10, 5, 2.5, and 1.25 μg/ml for Serratia marcescens and Pseudomonas aeruginosa).
(§4) Ten μl of diluted 10×test agents was added to each well of one row of the 96 well polypropylene plates from column 2 to column 12 (column 1 is a control for bacteria alone, with no peptide). Test agent concentrations in columns 2-12 were as follows: 64, 32, 16, 8, 4, 2, 1, 0.5, 0.25, 0.125, and 0.0625 μg/ml (128, 64, 32, 16, 8, 4, 2, 1, 0.5, 0.25, and 0.125 μg/ml for Serratia marcescens and Pseudomonas aeruginosa). The same peptide was in each of the 8 rows. One plate contained dilutions of one test agent and 8 bacterial isolates.
(§5) On the day of testing, the overnight bacterial broth cultures of Staphylococcus aureus fluoroquinolone-susceptible, Staphylococcus aureus fluoroquinolone-resistant, Staphylococcus epidermidis (Coagulase-negative Staphylococcus) fluoroquinolone-susceptible, Staphylococcus epidermidis (Coagulase-negative Staphylococcus) fluoroquinolone-resistant, Serratia marcescens, and Pseudomonas aeruginosa, plus two controls (Staphylococcus aureus and E. coli) were diluted in 5 ml of trypticase soy broth to yield turbidity equal to a 0.5 McFarland standard. The final inoculum for MIC testing for Staphylococcus aureus fluoroquinolone-susceptible, Staphylococcus aureus fluoroquinolone-resistant, Staphylococcus epidermidis (Coagulase-negative Staphylococcus) fluoroquinolone-susceptible, Staphylococcus epidermidis (Coagulase-negative Staphylococcus) fluoroquinolone-resistant, Serratia marcescens, and Pseudomonas aeruginosa was achieved by placing 0.05 ml of the turbidity adjusted sample to 5 ml of Mueller-Hinton broth.
(§6) Ninety μl of the bacterial suspensions was dispensed in each well from column 1 to column 12. Each bacterial isolate was placed in one row of a 96 well polypropylene plate containing the test agents. The plates were placed on shaker at 15 minutes at room temperature, and then incubated at 37° C. overnight. MICs were determined visually as the lowest concentration of drug that inhibits visible bacterial growth.

[2] = system: Staphylococcus epidermidis (Coagulase-negative Staphylococcus) fluoroquinolone-susceptible; test: as above; type: cell-based
Protocol: as §1, §2, §3, §4, §5, §6

For `N=C(N)NCCCCC(=O)Nc1cc(C(F)(F)F)cc(NC(=O)c2cc(C(=O)Nc3cc(C(F)(F)F)cc(NC(=O)CCCCNC(=N)N)c3O[C@@H]3CCNC3)ncn2)c1O[C@@H]1CCNC1` [Oligomer 4], the MIC50 ([1]; 25 isolates, Row 13) was 0.25 µg/mL (≈ 0.267 µM), the MIC90 ([1]; 25 isolates, Row 22) was 0.5 µg/mL (≈ 0.534 µM) and the “Range of MICs” value ([1]; 25 isolates, Summary of Results) was 0.125 to 1.0 µg/mL. The MIC ([1]; Staphylococcus aureus, 25 ocular isolates, read-out: Median MIC) was ≤ 0.25 µg/mL, the MIC ([1]; Staphylococcus aureus, isolate 1—E504, read-out: MIC) was 0.25 µg/mL (≈ 0.267 µM) and the MIC ([1]; Staphylococcus aureus, isolate 2—E475, read-out: MIC) was 0.25 µg/mL (≈ 0.267 µM). The MIC ([1]; Staphylococcus aureus, isolate 3—E442, read-out: MIC) was 0.25 µg/mL (≈ 0.267 µM), the MIC ([1]; Staphylococcus aureus, isolate 4—E427, read-out: MIC) was 0.5 µg/mL (≈ 0.534 µM) and the MIC ([1]; Staphylococcus aureus, isolate 5—E425, read-out: MIC) was 0.25 µg/mL (≈ 0.267 µM). It also gave an MIC ([1]; Staphylococcus aureus, isolate 6—E424, read-out: MIC) of 0.25 µg/mL (≈ 0.267 µM), an MIC ([1]; Staphylococcus aureus, isolate 7—E417, read-out: MIC) of 1 µg/mL (≈ 1.07 µM) and an MIC ([1]; Staphylococcus aureus, isolate 8—E407, read-out: MIC) of 0.25 µg/mL (≈ 0.267 µM). The MIC ([1]; Staphylococcus aureus, isolate 9—E401, read-out: MIC) was 0.25 µg/mL (≈ 0.267 µM), the MIC ([1]; Staphylococcus aureus, isolate 10—K1659, read-out: MIC) was 0.25 µg/mL (≈ 0.267 µM) and the MIC ([1]; Staphylococcus aureus, isolate 11—E96, read-out: MIC) was 0.125 µg/mL (≈ 0.133 µM). For the same molecule, the MIC ([1]; Staphylococcus aureus, isolate 12—E379, read-out: MIC) was 0.5 µg/mL (≈ 0.534 µM), the MIC ([1]; Staphylococcus aureus, isolate 13—E369, read-out: MIC) was 0.125 µg/mL (≈ 0.133 µM) and the MIC ([1]; Staphylococcus aureus, isolate 14—E361, read-out: MIC) was 0.25 µg/mL (≈ 0.267 µM). The MIC ([1]; Staphylococcus aureus, isolate 15—E339, read-out: MIC) was 0.25 µg/mL (≈ 0.267 µM), the MIC ([1]; Staphylococcus aureus, isolate 16—E333, read-out: MIC) was 0.25 µg/mL (≈ 0.267 µM) and the MIC ([1]; Staphylococcus aureus, isolate 17—E332, read-out: MIC) was 0.25 µg/mL (≈ 0.267 µM). For the same molecule, the MIC ([1]; Staphylococcus aureus, isolate 18—E327, read-out: MIC) was 0.5 µg/mL (≈ 0.534 µM), the MIC ([1]; Staphylococcus aureus, isolate 19—E325, read-out: MIC) was 0.5 µg/mL (≈ 0.534 µM) and the MIC ([1]; Staphylococcus aureus, isolate 20—K950, read-out: MIC) was 0.5 µg/mL (≈ 0.534 µM). It also gave an MIC ([1]; Staphylococcus aureus, isolate 21—K839, read-out: MIC) of 0.25 µg/mL (≈ 0.267 µM), an MIC ([1]; Staphylococcus aureus, isolate 22—K1679, read-out: MIC) of 0.25 µg/mL (≈ 0.267 µM) and an MIC ([1]; Staphylococcus aureus, isolate 23—K1677, read-out: MIC) of 0.25 µg/mL (≈ 0.267 µM). The MIC ([1]; Staphylococcus aureus, isolate 24—K1672, read-out: MIC) was 0.25 µg/mL (≈ 0.267 µM), the MIC ([1]; Staphylococcus aureus, isolate 25—K1670, read-out: MIC) was 0.25 µg/mL (≈ 0.267 µM) and the MIC ([1]; Staphylococcus aureus, n=25 per group, read-out: Median MIC) was 0.25 µg/mL (≈ 0.267 µM). It also gave an MIC50 ([1]; Staphylococcus aureus, 25 isolates, Summary of Results, read-out: MIC50) of 0.25 µg/mL (≈ 0.267 µM), an MIC90 ([1]; Staphylococcus aureus, 25 isolates, Summary of Results, read-out: MIC90) of 0.5 µg/mL (≈ 0.534 µM) and an MIC ([1]; Staphylococcus aureus, 25 isolates, Summary of Results, read-out: Median MIC) of 0.25 µg/mL (≈ 0.267 µM). The MIC50 ([1]; n=25 per group) was 0.25 µg/mL (≈ 0.267 µM), the MIC90 ([1]; n=25 per group) was 0.5 µg/mL (≈ 0.534 µM) and the “Range of MICs” value ([1]; n=25 per group) was 0.125 to 1.0 µg/mL. The MIC, sorted list for MIC50 and MIC90 Determinations (QSSE-A) ([2]; 25 isolates sorted ascending, Row 1-25, <0.0625 was Replaced with 0.03125) was 0.25 µg/mL, the MIC50 ([2]; 25 isolates, Row 13) was 0.125 µg/mL (≈ 0.133 µM) and the MIC90 ([2]; 25 isolates, Row 22) was 0.25 µg/mL (≈ 0.267 µM). For the same molecule, the “Range of MICs” value ([2]; 25 isolates, Summary of Results, <0.0625 was Replaced with 0.03125) was 0.03125 to 0.25 µg/mL, the MIC ([2]; Staphylococcus epidermidis, 25 ocular isolates, read-out: Median MIC) was ≤ 0.25 µg/mL and the MIC ([2]; Staphylococcus epidermidis, isolate 1—E511, read-out: MIC) was 0.25 µg/mL (≈ 0.267 µM). It also gave an MIC ([2]; Staphylococcus epidermidis, isolate 2—E489, read-out: MIC) of 0.125 µg/mL (≈ 0.133 µM), an MIC ([2]; Staphylococcus epidermidis, isolate 3—E491, read-out: MIC) of 0.125 µg/mL (≈ 0.133 µM) and an MIC ([2]; Staphylococcus epidermidis, isolate 4—E476, read-out: MIC) of 0.25 µg/mL (≈ 0.267 µM). For the same molecule, the MIC ([2]; Staphylococcus epidermidis, isolate 5—E473, read-out: MIC) was 0.25 µg/mL (≈ 0.267 µM), the MIC ([2]; Staphylococcus epidermidis, isolate 6—E462, read-out: MIC) was 0.125 µg/mL (≈ 0.133 µM) and the MIC ([2]; Staphylococcus epidermidis, isolate 7—E460, read-out: MIC) was 0.125 µg/mL (≈ 0.133 µM). The MIC ([2]; Staphylococcus epidermidis, isolate 8—E453, read-out: MIC) was 0.125 µg/mL (≈ 0.133 µM), the MIC ([2]; Staphylococcus epidermidis, isolate 9—E448, read-out: MIC) was 0.125 µg/mL (≈ 0.133 µM) and the MIC ([2]; Staphylococcus epidermidis, isolate 10—E443, read-out: MIC) was < 0.0625 µg/mL. The MIC ([2]; Staphylococcus epidermidis, isolate 11—E441, read-out: MIC) was < 0.0625 µg/mL, the MIC ([2]; Staphylococcus epidermidis, isolate 12—E438, read-out: MIC) was 0.125 µg/mL (≈ 0.133 µM) and the MIC ([2]; Staphylococcus epidermidis, isolate 13—E437, read-out: MIC) was 0.125 µg/mL (≈ 0.133 µM). For the same molecule, the MIC ([2]; Staphylococcus epidermidis, isolate 14—E434, read-out: MIC) was 0.125 µg/mL (≈ 0.133 µM), the MIC ([2]; Staphylococcus epidermidis, isolate 15—E433, read-out: MIC) was 0.125 µg/mL (≈ 0.133 µM) and the MIC ([2]; Staphylococcus epidermidis, isolate 16—E430, read-out: MIC) was < 0.0625 µg/mL. The MIC ([2]; Staphylococcus epidermidis, isolate 17—E420, read-out: MIC) was 0.125 µg/mL (≈ 0.133 µM), the MIC ([2]; Staphylococcus epidermidis, isolate 18—E419, read-out: MIC) was 0.125 µg/mL (≈ 0.133 µM) and the MIC ([2]; Staphylococcus epidermidis, isolate 19—E403, read-out: MIC) was 0.125 µg/mL (≈ 0.133 µM). The MIC ([2]; Staphylococcus epidermidis, isolate 20—E394, read-out: MIC) was 0.125 µg/mL (≈ 0.133 µM), the MIC ([2]; Staphylococcus epidermidis, isolate 21—E393, read-out: MIC) was 0.125 µg/mL (≈ 0.133 µM) and the MIC ([2]; Staphylococcus epidermidis, isolate 22—E328, read-out: MIC) was 0.25 µg/mL (≈ 0.267 µM). The MIC ([2]; Staphylococcus epidermidis, isolate 23—E382, read-out: MIC) was 0.125 µg/mL (≈ 0.133 µM), the MIC ([2]; Staphylococcus epidermidis, isolate 24—E381, read-out: MIC) was 0.125 µg/mL (≈ 0.133 µM) and the MIC ([2]; Staphylococcus epidermidis, isolate 25—E372, read-out: MIC) was 0.25 µg/mL (≈ 0.267 µM). It also gave an MIC ([2]; Staphylococcus epidermidis, n=25 per group, read-out: Median MIC) of 0.125 µg/mL (≈ 0.133 µM), an MIC50 ([2]; Staphylococcus epidermidis, 25 isolates, Summary of Results, read-out: MIC50) of 0.125 µg/mL (≈ 0.133 µM) and an MIC90 ([2]; Staphylococcus epidermidis, 25 isolates, Summary of Results, read-out: MIC90) of 0.25 µg/mL (≈ 0.267 µM). For the same molecule, the MIC ([2]; Staphylococcus epidermidis, 25 isolates, Summary of Results, read-out: Median MIC) was 0.125 µg/mL (≈ 0.133 µM), the MIC50 ([2]; n=25 per group) was 0.125 µg/mL (≈ 0.133 µM) and the MIC90 ([2]; n=25 per group) was 0.25 µg/mL (≈ 0.267 µM). For the same molecule, the “Range of MICs” value ([2]; n=25 per group) was 0.03125 to 0.25 µg/mL.
